Reference: ChEMBL document CHEMBL2074091, “Transport of methotrexate, methotrexate polyglutamates, and 17beta-estradiol 17-(beta-D-glucuronide) by ABCG2: effects of acquired mutations at R482 on methotrexate transport” (Cancer Res, 2003)

Tests used:
Type in all cases: functional, cell membranes
[1] = target: T1, Broad substrate specificity ATP-binding cassette transporter ABCG2 (Homo sapiens, UniProt Q9UNQ0); assay: (§1) TP_TRANSPORTER: uptake (vesicle) in membrane vesicle from ABCG2-R482-expressing HEK293 cells; conditions: hek293
T1 sequence (Q9UNQ0 whole entry): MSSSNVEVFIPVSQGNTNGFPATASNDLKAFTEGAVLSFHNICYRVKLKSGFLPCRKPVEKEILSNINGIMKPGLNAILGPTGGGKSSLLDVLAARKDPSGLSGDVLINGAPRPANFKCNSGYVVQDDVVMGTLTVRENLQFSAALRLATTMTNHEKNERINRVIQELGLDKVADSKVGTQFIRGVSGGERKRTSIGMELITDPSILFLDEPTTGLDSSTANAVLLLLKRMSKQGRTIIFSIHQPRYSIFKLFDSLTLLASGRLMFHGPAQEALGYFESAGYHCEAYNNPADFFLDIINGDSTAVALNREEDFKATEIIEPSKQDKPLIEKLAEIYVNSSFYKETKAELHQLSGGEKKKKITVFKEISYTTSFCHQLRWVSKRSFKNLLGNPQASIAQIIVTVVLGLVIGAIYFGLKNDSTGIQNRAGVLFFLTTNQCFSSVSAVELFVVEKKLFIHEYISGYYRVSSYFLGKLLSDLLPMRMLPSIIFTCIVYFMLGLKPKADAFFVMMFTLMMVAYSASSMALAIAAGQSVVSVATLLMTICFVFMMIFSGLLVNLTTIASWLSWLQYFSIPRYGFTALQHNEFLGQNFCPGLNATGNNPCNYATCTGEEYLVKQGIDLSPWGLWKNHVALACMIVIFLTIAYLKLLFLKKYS

[2] = target: ATP-binding cassette sub-family C member 2 (Homo sapiens, UniProt Q92887); assay: TP_TRANSPORTER: uptake (vesicle) in membrane vesicle from MRP2-expressing HEK293 cells
Chain of ATP-binding cassette sub-family C member 2 (Q92887 whole entry): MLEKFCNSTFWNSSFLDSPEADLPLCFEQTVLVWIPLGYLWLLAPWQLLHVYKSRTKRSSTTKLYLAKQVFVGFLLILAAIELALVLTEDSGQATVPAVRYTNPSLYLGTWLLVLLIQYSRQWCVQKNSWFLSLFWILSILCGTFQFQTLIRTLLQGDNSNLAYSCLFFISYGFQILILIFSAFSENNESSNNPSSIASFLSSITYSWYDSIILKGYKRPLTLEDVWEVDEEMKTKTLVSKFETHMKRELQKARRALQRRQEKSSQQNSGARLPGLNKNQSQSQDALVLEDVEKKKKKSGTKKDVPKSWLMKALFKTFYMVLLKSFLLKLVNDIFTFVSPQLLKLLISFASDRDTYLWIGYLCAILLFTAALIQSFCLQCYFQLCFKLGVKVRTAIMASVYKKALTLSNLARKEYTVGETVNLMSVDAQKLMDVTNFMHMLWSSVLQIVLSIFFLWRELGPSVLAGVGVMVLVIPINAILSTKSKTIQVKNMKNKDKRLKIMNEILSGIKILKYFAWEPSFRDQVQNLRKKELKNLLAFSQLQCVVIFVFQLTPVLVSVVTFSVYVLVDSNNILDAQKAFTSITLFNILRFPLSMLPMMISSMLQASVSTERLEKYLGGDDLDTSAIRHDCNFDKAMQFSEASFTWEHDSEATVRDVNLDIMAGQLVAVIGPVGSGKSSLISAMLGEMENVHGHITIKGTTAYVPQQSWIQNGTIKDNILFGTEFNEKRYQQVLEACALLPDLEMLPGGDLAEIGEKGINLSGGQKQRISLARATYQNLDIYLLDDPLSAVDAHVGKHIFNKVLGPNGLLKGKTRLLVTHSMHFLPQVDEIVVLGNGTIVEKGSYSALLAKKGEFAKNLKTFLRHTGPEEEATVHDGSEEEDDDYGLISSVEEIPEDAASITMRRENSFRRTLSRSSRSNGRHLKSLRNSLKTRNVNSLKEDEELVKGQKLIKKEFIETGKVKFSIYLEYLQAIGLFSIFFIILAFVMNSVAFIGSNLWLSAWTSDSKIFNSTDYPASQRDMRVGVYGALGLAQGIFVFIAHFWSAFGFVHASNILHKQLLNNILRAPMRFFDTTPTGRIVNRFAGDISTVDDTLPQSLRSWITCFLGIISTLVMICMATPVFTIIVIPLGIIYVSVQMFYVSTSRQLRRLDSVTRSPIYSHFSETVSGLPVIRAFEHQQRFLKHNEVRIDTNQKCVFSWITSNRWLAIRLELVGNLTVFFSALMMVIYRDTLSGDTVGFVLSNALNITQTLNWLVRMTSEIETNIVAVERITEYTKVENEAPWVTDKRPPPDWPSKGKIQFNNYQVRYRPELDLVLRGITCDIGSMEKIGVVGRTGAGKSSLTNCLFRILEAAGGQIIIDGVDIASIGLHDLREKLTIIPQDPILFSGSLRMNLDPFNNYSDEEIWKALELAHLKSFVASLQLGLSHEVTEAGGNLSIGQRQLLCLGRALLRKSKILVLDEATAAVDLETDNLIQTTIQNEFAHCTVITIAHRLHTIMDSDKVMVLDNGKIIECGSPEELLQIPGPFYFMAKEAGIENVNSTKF

ABCG2 (R482) = target: T2, ABCG2 (R482) (Homo sapiens, UniProt Q9UNQ0); assay: as §1; conditions: membrane vesicles from ABCG2-R482-expressing HEK293 cells
T2 sequence (Q9UNQ0 whole entry): T1 sequence (Q9UNQ0 whole entry)

[3] = target: Multidrug resistance associated protein (Homo sapiens) (UniProt Q96QA9); assay: TP_TRANSPORTER: uptake (vesicle) in membrane vesicles from MRP3-expressing HEK293 cells
Chain of Multidrug resistance associated protein (Homo sapiens) (Q96QA9 as listed by the source): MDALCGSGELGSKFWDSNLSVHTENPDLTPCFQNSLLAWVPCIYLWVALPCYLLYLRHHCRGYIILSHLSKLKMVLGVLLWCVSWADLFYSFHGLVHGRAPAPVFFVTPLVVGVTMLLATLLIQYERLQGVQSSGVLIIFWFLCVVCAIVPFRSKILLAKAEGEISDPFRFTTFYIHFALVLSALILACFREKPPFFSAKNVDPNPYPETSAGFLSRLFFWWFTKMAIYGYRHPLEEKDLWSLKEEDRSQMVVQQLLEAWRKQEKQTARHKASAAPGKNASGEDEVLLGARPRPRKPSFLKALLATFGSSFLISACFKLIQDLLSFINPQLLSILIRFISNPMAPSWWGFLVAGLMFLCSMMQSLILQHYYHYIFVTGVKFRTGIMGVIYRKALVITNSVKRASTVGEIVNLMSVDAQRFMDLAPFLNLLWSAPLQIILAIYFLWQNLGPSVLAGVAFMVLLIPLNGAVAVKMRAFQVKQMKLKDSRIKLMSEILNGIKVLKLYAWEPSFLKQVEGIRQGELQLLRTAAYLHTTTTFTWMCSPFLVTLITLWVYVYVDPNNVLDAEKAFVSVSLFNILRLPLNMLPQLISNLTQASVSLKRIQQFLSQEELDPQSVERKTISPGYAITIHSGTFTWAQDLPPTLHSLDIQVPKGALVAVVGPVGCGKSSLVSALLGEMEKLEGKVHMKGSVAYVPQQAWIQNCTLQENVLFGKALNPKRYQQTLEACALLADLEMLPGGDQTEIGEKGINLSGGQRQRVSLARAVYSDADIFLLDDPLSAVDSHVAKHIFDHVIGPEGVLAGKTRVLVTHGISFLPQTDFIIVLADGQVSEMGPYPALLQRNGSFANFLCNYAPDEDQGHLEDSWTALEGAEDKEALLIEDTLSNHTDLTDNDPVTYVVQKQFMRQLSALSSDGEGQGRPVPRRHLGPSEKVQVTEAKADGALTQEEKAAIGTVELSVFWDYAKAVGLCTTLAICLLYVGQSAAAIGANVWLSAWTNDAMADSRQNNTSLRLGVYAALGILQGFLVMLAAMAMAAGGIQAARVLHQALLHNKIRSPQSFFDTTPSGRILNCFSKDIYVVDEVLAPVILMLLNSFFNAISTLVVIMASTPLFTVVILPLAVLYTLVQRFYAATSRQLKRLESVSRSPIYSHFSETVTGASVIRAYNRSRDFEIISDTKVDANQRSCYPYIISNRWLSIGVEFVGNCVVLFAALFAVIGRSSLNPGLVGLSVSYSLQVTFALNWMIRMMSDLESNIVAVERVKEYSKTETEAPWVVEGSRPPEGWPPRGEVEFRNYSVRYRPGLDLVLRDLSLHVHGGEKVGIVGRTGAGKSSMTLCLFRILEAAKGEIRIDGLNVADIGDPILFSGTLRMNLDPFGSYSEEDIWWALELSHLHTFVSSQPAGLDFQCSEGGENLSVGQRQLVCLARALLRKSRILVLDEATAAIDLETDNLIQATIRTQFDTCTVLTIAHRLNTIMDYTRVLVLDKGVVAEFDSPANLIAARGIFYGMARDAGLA

Row | SMILES | Activity [1] | also measured
1 | CN(Cc1cnc2nc(N)nc(N)c2n1)c1ccc(C(=O)N[C@@H](CCC(=O)N[C@@H](CCC(=O)N[C@@H](CCC(=O)N[C@@H](CCC(=O)O)C(=O)O)C(=O)O)C(=O)O)C(=O)O)cc1 | substrate [] | 
2 | C[C@]12CC[C@@H]3c4ccc(O)cc4CC[C@H]3[C@@H]1CC[C@@H]2O[C@@H]1O[C@H](C(=O)O)[C@@H](O)[C@H](O)[C@H]1O [ESTRADIOL 17B GLUCURONIDE] | substrate [] | 
3 | CN(Cc1cnc2nc(N)nc(N)c2n1)c1ccc(C(=O)N[C@@H](CCC(=O)N[C@@H](CCC(=O)N[C@@H](CCC(=O)O)C(=O)O)C(=O)O)C(=O)O)cc1 | substrate [] | 
4 | Nc1nc2c(c(=O)[nH]1)N(C=O)C(CNc1ccc(C(=O)N[C@@H](CCC(=O)O)C(=O)O)cc1)CN2 (some centres not stated) [LEUCOVORIN] |  | Activity [2]: substrate []
5 | CN(Cc1cnc2nc(N)nc(N)c2n1)c1ccc(C(=O)N[C@@H](CCC(=O)O)C(=O)O)cc1 [METHOTREXATE] |  | Km (ABCG2 (R482)): 1300 µM
6 | Nc1nc2ncc(CNc3ccc(C(=O)N[C@@H](CCC(=O)O)C(=O)O)cc3)nc2c(=O)[nH]1 [FOLIC ACID] | substrate [] | 
7 | Nc1nc(=O)c2c([nH]1)NCC(CNc1ccc(C(=O)N[C@@H](CCC(=O)O)C(=O)O)cc1)N2C=O (some centres not stated) |  | Activity [3]: substrate []
